# Assay results published in patent US20210255184A1, “Biosensor Device and Methods” (The New Zealand Institute for Plant and Food Research …, priority 2018, published 2021).
# Assays:
# DOr85b/Orco = molecular target: T1, DOr85b/Orco (Drosophila melanogaster, UniProt Q9VHQ6); settings: cited from earlier work
# T1 construct: host or cells: Xenopus oocytes
# T1 sequence (Q9VHQ6 1-389): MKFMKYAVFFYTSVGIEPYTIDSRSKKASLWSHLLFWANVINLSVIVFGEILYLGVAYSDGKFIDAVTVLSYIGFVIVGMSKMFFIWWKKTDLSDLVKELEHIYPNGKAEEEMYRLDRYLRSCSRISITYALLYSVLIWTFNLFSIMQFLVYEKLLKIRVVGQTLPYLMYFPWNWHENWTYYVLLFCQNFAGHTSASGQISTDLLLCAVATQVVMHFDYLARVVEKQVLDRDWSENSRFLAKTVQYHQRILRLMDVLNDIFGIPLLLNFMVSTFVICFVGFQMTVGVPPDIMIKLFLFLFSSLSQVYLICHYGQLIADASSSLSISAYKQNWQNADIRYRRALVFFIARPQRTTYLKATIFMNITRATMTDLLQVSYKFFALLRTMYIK
# T1 sequence (Q9VNB5 1-486 partner): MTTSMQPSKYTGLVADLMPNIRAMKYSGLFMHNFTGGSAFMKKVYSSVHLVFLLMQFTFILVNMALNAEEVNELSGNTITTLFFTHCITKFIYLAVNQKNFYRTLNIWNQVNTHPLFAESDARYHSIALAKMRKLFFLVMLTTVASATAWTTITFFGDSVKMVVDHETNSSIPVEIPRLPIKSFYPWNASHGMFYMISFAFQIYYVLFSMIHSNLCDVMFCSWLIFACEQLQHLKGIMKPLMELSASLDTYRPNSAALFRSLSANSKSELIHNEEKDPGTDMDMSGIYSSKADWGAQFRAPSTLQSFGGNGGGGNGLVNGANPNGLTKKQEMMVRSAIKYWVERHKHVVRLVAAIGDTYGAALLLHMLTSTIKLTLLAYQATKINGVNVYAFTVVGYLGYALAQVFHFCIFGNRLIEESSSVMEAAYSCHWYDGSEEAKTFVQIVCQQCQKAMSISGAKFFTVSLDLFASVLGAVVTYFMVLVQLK
# Or71a/Orco = molecular target: T2, Or71a/Orco (Drosophila melanogaster, UniProt Q9VUK5); assay: Droplet interface bilayer ion channel recording, Or71a/Orco; assay type: biochemical; settings: DIB, 10 μM ligand, holding potential 0 mV and −100 mV
# T2 construct: his-tag; made in house; host or cells: baculovirus-infected Sf9 cells
# T2 sequence (Q9VUK5 1-378): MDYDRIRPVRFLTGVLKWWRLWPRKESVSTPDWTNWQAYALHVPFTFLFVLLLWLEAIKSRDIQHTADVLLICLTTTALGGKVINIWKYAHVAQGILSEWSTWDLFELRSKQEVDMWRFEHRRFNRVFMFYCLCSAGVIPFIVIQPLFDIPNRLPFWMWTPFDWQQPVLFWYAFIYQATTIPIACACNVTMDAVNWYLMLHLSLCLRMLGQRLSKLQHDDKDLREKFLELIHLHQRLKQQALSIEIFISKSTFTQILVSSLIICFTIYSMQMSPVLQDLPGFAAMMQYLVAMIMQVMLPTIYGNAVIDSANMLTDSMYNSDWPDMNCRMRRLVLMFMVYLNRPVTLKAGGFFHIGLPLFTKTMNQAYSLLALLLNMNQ
# T2 sequence (Q9VNB5 1-486 partner): T1 sequence (Q9VNB5 1-486 partner)
# Method: Bilayers were formed between two droplets formed within a PMMA chamber filled with 1 mg/ml DPhPC in undecane and AR20 silicone oil (1:1 ratio). The first step in this process was to deposit a 50 nl droplet onto the stationary silver electrode positioned at the base of the well; this droplet consisted of an aqueous solution containing 300 mM NaCl, 10 mM HEPES (pH 7.4), containing the odorant receptor proteins in proteoliposomes (at a 1:20 dilution from the proteoliposome preparation), […] The second droplet was mounted onto a second silver electrode which was held in the oil and lipid mixture using a YOU-3 manipulator (Narishige, Japan). […] Once the droplets were in contact a bilayer formed spontaneously within 1 minute (as determined by visual assessment and an increase in the bilayer capacitance as measured with a capacitance voltage protocol using the Pico2 amplifier). Insertion of an active channel was determined by a change in current while clamping the voltage at 50 mV. […]
# Currents were recorded with a Pico2 or an eONE-HS amplifier (Tecella, USA and Elements, Italy, respectively) with built-in digitizers, operating in gap-free acquisition mode at a sampling frequency of 20 kHz, and using a 0.8 or 1.5 kHz low pass filter. […]
# Data were analysed using ANA (Dr Pusch, Genoa), EDR (Elements, Italy) and WinWCP (Dr Dempster, University of Strathclyde). […]
# BmOR3/Orco = settings: ref 14; * estimated visually from graph; cited from earlier work
# BmOR1/Orco = settings: ref 14; * estimated visually from graph; cited from earlier work
# [1] = EIS sensor, empty liposomes (specificity control); assay type: biochemical; settings: empty liposomes without receptor
# Method: PBS solution was prepared by immersing one tablet of PBS in 200 ml of milli-Q water (according to manufacturers instructions) and filtered using 0.2-μm syringe filter. The pH of the prepared buffer solution was measured with a pH meter. OrX liposomes or OrX/Orco liposomes were diluted 100 fold in PBS buffer solution (pH=7.4) and the COOH-activated electrodes were incubated in that buffer solution at room temperature for one hour. Then, the electrodes were washed extensively with PBS buffer solution to wash out any unbound liposomes.
# (§1) PBS (pH=7.4) was used as an electrolyte to conduct electrochemical measurements. PBS buffer was degassed for about 30 minutes prior to electrochemical measurements. Odorant solutions of concentration ranging from 1 aM to 1 μM were prepared by sequential dilution in PBS solution containing 1% DMSO. OR immobilized electrodes were incubated in relevant odorant solution for ˜30 minutes each and washed gently with PBS before EIS measurements.
# (§2) EIS measurements were done in a 3 electrode cell containing Ag/AgCl (3 M NaCl, 0.209 V vs. SHE) reference electrode, coiled platinum wire as a counter electrode and the gold disk as a working electrode at a fixed voltage of −0.7 using PalmSens potentiostat. Degassed PBS was used as an electrolyte.
# EIS measurements were performed on gold electrodes functionalised with OrX liposomes (either Or10a or Or22a), OrX/Orco liposomes, or empty liposomes prior to and after target ligand or control ligand incubation with increasing concentrations (1 aM to 100 μM). Dose response curves were obtained by defining sensor response as −(ΔRp/R^op) versus log[C(Ligand)]. FIG. 4a presents the EIS response in terms of Nyquist plot for the Or10a liposome functionalized sensors when exposed to a solution containing one of the known target ligands of Or10a, methyl salicylate, at various concentrations. […] The dose response curve (FIG. 4b) was obtained by plotting the change in polarization resistance −(ΔRp/R^op) versus log[conc(Ligand)], as the sensor response. […]
# Or35a = molecular target: T3, Or35a (Drosophila melanogaster, UniProt Q9V3Q2); assay: EIS sensor, Or35a liposomes on gold electrode; assay type: biochemical
# T3 construct: his-tag; made in house; host or cells: baculovirus-infected Sf9 cells
# T3 sequence (Q9V3Q2 1-409): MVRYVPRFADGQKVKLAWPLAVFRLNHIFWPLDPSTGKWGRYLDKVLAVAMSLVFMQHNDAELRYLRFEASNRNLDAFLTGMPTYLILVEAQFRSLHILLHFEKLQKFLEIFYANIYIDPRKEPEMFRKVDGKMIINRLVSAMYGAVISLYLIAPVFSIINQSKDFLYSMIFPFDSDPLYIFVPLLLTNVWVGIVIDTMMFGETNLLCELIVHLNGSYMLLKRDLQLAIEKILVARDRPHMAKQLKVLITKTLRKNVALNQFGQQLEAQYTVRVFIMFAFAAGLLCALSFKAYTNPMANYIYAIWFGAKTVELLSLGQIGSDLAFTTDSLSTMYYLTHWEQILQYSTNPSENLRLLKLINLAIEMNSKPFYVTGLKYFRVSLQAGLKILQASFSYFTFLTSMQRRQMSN
# Method: as §1, §2
# EIS measurements were performed on gold electrodes functionalised with OrX liposomes (either Or10a or Or22a), OrX/Orco liposomes, or empty liposomes prior to and after target ligand or control ligand incubation with increasing concentrations (1 aM to 100 μM). Dose response curves were obtained by defining sensor response as −(ΔRp/R^op) versus log[C(Ligand)]. FIG. 4a presents the EIS response in terms of Nyquist plot for the Or10a liposome functionalized sensors when exposed to a solution containing one of the known target ligands of Or10a, methyl salicylate, at various concentrations. […] The dose response curve (FIG. 4b) was obtained by plotting the change in polarization resistance −(ΔRp/R^op) versus log[conc(Ligand)], as the sensor response. Here, Rp is the polarization resistance after Or10a liposome-target interaction and R^op is the polarization resistance before Or10a liposome-target interaction.
# (§3) Prior to use, 1 mg liposomes (500 μl at 2 mg/ml) were defrosted on ice and then destabilized by incubating with 0.2% CHAPS for 15 min at room temperature. […] All Or35a/Orco integrated liposomes samples were analysed by Western blot before being aliquoted and stored at −80° C. Integration of Or35a/Orco into liposomes was assessed by density gradient ultracentrifugation (DGU) using Accudenz (Accurate Chemical & Scientific Corporation, USA). […]
# Or35a/Orco = molecular target: T4, Or35a/Orco (Drosophila melanogaster, UniProt Q9V3Q2); assay: EIS sensor, Or35a/Orco liposomes on gold electrode; assay type: biochemical
# T4 construct: his-tag; made in house; host or cells: baculovirus-infected Sf9 cells
# T4 sequence (Q9V3Q2 1-409): T3 sequence (Q9V3Q2 1-409)
# T4 sequence (Q9VNB5 1-486 partner): T1 sequence (Q9VNB5 1-486 partner)
# Method: as §1
# as §2, with “electrolyte. […]” for “electrolyte.”
# as §3
# ECB (Z) OR3/Orco = settings: cited from earlier work
# OscaOR1/Orco = settings: ref 47; * estimated visually from graph; cited from earlier work
# DiOR1/Orco = settings: ref 48; * estimated visually from graph; cited from earlier work
# MsiOR1/Orco = settings: ref 48; * estimated visually from graph; cited from earlier work
# PxOR1/Orco = settings: ref 14; * estimated visually from graph; cited from earlier work
# AgOr65/Orco = settings: cited from earlier work
# AgOr48/Orco = settings: cited from earlier work
# [2] = EIS dose response, ligand 1 aM to 100 μM
smiles,measurement,setting,value
CCCCCC(C)=O [2-heptanone],EC50,DOr85b/Orco,45.6 µM
same,Sensitivity limit,"DOr85b/Orco; ref 14, * estimated visually from graph",10^−8-10^−6 M*
CCc1ccc(OC)c(O)c1 [4-ethyl guaiacol],ion channel activity,Or71a/Orco,active ligand gated ion channel
CCC/C=C\C=C\CCCCCCCCC=O [Bonnbykal],Sensitivity limit,BmOR3/Orco,10^−8-10^−6 M*
CCC/C=C\C=C\CCCCCCCCCO [Bonnbykol],Sensitivity limit,BmOR1/Orco,10^−8-10^−6 M*
CCC/C=C/C=O [E2-hexenal],sensor response to ligand,[1],negligible responses
same,limit of detection (LOD),Or35a; [2],10 fM
same,Detection Range,Or35a; Table 3,10^−14 to 10^−6 M
same,limit of detection,Or35a/Orco; [2],0.1 fM
same,Detection Range,Or35a/Orco; Table 3,10^−16-10^−6 M
CC/C=C/CCCCCCCCCCOC(C)=O [E11 pheromone],Sensitivity limit,ECB (Z) OR3/Orco,10^−9 M
CC/C=C/CCCCCCCCCCO [E11-14:OH],Sensitivity limit,OscaOR1/Orco,10^−7 M*
CCCC/C=C/CCCCCCCCCC=O [Ell-16:Ald],Sensitivity limit,DiOR1/Orco,10^−7 M*
CCCC/C=C\CCCCCCCCCCOC(C)=O [Z11-16:Ac],Sensitivity limit,MsiOR1/Orco,10^−7 M*
CCCC/C=C\CCCCCCCCCC=O [Z11-16:Ald],Sensitivity limit,PxOR1/Orco,10^−8-10^−6 M*
C=CCc1ccc(O)c(OC)c1 [eugenol],Ec50 (given as Log),AgOr65/Orco; log value,Log = −6.54
same,Sensitivity limit (given as Log),"AgOr65/Orco; ref 43, * estimated visually from graph",Log = −7*
CCCCCCCCC1CCC(=O)O1 (stereo not shown) [g-dodecalactone],Ec50 (given as Log),AgOr48/Orco; log value,Log = −7.01
same,Sensitivity limit (given as Log),"AgOr48/Orco; ref 45, * estimated visually from graph",Log = −8*
